The structures appear in SMILES notation. Values joined by “and” are separate entries in the source; they are usually repeats but may differ in a detail not shown here. Identical values can stand only once.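 All cell lines were grown in 96-well plates and treated with compound for 48 hours. GI50 marks 50% less growth. TGI: total growth inhibition.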 Bounds are passed on as bounds.

Among the data in PubChem BioAssay (NCI) are TGI and GI50 values, retold here.

Assay in all cases: NCI-60 cell line screen, 48 h
Experiment [1] relates to CCRF-CEM leukemia.
Experiment [2] relates to SNB-19 CNS.
Experiment [3] relates to MDA-MB-231 breast.
The test system of experiment [4] is TK-10 renal.
In experiment [5] the test system is A498 renal.
Experiment [6] concerns K-562 leukemia.
In experiment [7] the test system is DU-145 prostate.
The test system of experiment [8] is SF-268 CNS.
In experiment [9] the test system is UO-31 renal.

Regarding `N#CC(=S)Nc1cccc(Cl)c1`, the TGI in [1], in [2], in experiment [3], in experiment [4], in experiment [5] and in [6] was more than 100 µM each time. In addition, the TGI in experiment [7] and in [8] was more than 100 µM in each case.
For the compound `COC(=O)C(CCS(=O)(=O)CC(=O)C(=O)Nc1cccc(C(C)=O)c1)C(=O)OC`, the TGI in [1] is more than 65.5 µM; in [2], more than 100 µM; in experiment [4], more than 100 µM; in experiment [5], more than 100 µM; in experiment [6], more than 100 µM; in [8] it was more than 100 µM. Further, in experiment [9], the TGI is more than 100 µM.
Regarding `O=C1NC(=S)NC(=O)C1=Cc1cc2c(cc1[N+](=O)[O-])OCO2`, the TGI in experiment [1], in experiment [2], in experiment [4], in experiment [5], in experiment [6] and in experiment [8] was more than 100 µM each time. Moreover, the TGI in [9] is more than 100 µM.
Take `CCCN(CCCCC(NC(C)=O)C(=O)NCc1ccccc1)C(=O)NCCCl` (stereo not given): the TGI in [1], in experiment [2], in [4], in experiment [6], in [8] and in experiment [9] was more than 100 µM each time.
Consider `CCCCCCCCCCC/C(=N/O)c1ccc(O)c2ncccc12`, for which the TGI was more than 100 µM in [2], more than 100 µM in experiment [4], more than 100 µM in experiment [8] and 11.4 µM in [9].
`N#CC(C(=O)/C(=N/N)C(C#N)c1ccc(Cl)cc1)c1ccc(Cl)cc1` (stereo not given): the TGI in experiment [1], in experiment [2], in [4], in experiment [5], in experiment [6] and in experiment [8] was more than 100 µM each time. In experiment [9], this compound had a TGI of more than 100 µM.
Turning to `CC(C)N(C(=O)C12C3C4C5(C#N)C3C1(I)C5C42I)C(C)C` (stereo not given), the TGI in [1] is more than 61.8 µM; in [2], more than 100 µM; in [4], more than 100 µM; in experiment [5] it was more than 100 µM; in experiment [6] it was more than 93.3 µM; in [8], more than 100 µM. Besides, the TGI in [9] is more than 100 µM.
With `Cc1ccccc1-c1c(N)nc(NC#N)nc1C(=O)Nc1ccccc1`, the TGI in experiment [1], in [2], in experiment [4], in experiment [5], in [6] and in experiment [8] was more than 100 µM in each case. This compound also yielded a TGI in experiment [9] of more than 100 µM.
On to `Cc1cccc(C(C)(C)C)c1NC(=O)C(=O)C(C(=O)/C=C\c1ccccc1)C1OC(=O)c2ccccc21` (stereo not given), for which the TGI in experiment [1], in [2], in [4], in experiment [5], in experiment [6] and in experiment [8] was more than 100 µM throughout. Besides, the TGI in experiment [9] is more than 100 µM.
Regarding `CCOc1ccc(N=Cc2cccc3cccnc23)cc1`, the TGI is more than 100 µM in experiment [1]; more than 100 µM in experiment [2]; more than 100 µM in experiment [4]; more than 100 µM in experiment [5]; 82.3 µM in experiment [6]; more than 100 µM in [8].
As to `CC(O)/C=C/C(CCC(C)CO)C(C)C` (stereo not given), the TGI in experiment [1], in experiment [2], in [4], in experiment [5], in [6] and in [8] was more than 100 µM throughout. This compound also registered a TGI in [9] of more than 100 µM.
Take `O=C1C=C[C@@]23CC1C(O)C[C@H]2C=Cc1ccccc13` (stereo not given in full): the TGI in experiment [1], in experiment [2], in experiment [5], in experiment [6], in experiment [8] and in experiment [9] was more than 100 µM in each case.
`C[C@@H]1C=C(CCCCCCCCCCC[C@H](O)[C@@H]2CCC(=O)O2)C(=O)O1`: the GI50 in experiment [1] is 17.6 µM; in experiment [2] it was 86.5 µM; in experiment [3] it was 19.4 µM; in experiment [4] it was 22.9 µM; in [5] it was 25.6 µM; in experiment [6] it was 20.4 µM. Moreover, the GI50 in [7] is 24.1 µM; in experiment [8] it was 40.3 µM; in experiment [9] it was 20.1 µM. The TGI in experiment [1] is 47.4 µM; in [2], more than 100 µM; in experiment [3] it was 88.7 µM; in experiment [4], 63.8 µM; in [5] it was 68.7 µM; in experiment [6], 56.7 µM. Also, the TGI was more than 100 µM in experiment [7], more than 100 µM in [8] and 55.6 µM in experiment [9].
For `CCCCCCCCCCCCCCCCCC(=O)OCC(CN(C)CCN(C)C)OC(=O)CCCCCCCCCCCCCCCCC` (stereo not given), the TGI in [1], in [2], in [4], in experiment [5], in experiment [6] and in experiment [8] was more than 100 µM throughout. The TGI in experiment [9] is more than 100 µM.
For `CSc1nc(NC2OCC(OC(C)=O)C(OC(C)=O)C2OC(C)=O)c2c(OC(C)=O)c(C)c(=O)oc2n1` (stereo not given), the TGI in experiment [1], in [2], in experiment [4], in [5], in experiment [6] and in [9] was more than 100 µM in each case.
Take `Cc1c(/C=N/NS(=O)(=O)c2ccccc2)no[n+]1[O-]`: the TGI in experiment [1], in experiment [2], in experiment [4], in experiment [5], in experiment [6] and in experiment [8] was more than 100 µM throughout. Further, in experiment [9], the TGI was 49.6 µM.
As for `COc1ccc(/C=N/N=C(\N)NO)cc1OC`, the TGI in experiment [1] was more than 100 µM; in [2], more than 100 µM; in [4], more than 100 µM; in [6], more than 100 µM; in experiment [8], 73.6 µM; in experiment [9] it was more than 100 µM.
Take `[Cl][Bi]([O]c1ccccn1)[O]c1ccccn1`: the GI50 in experiment [2], in experiment [4], in [8] and in experiment [9] was more than 100 µM in each case. The TGI in experiment [2], in [4], in [8] and in [9] was more than 100 µM each time.
With `CC(=O)O[C@H]1C(=O)[C@@]2(C)C(C(OC(=O)c3ccccc3)[C@]3(O)CC(OC(=O)[C@H](OC(=O)CCC(=O)O)C(NC(=O)c4ccccc4)c4ccccc4)C(C)=C1C3(C)C)C1(OC(C)=O)COC1C[C@@H]2OC(=O)CCC(=O)O` (stereo not given in full), the TGI in [2] was more than 100 µM; in [4], more than 100 µM; in experiment [5] it was 5.65 µM; in experiment [8], more than 100 µM; in experiment [9], more than 100 µM. Also, the GI50 in experiment [5] was 0.0997 µM.
`O=C1C(Cl)=C(Cl)C(=O)N1C1C2CC3CC(C2)CC1C3` (stereo not given): the TGI in experiment [1] was 64.7 µM; in [2] it was more than 100 µM; in [4], more than 100 µM; in experiment [5], more than 100 µM; in [6], more than 92.2 µM; in experiment [8] it was more than 100 µM. In experiment [9], this compound came in with a TGI of more than 100 µM.
In the case of `O=C1c2cccc3cc([N+](=O)[O-])cc(c23)C(=O)N1CCNCCNCCNCCN1C(=O)c2cccc3cc([N+](=O)[O-])cc(c23)C1=O`, the TGI was 0.635 µM in experiment [1]; 2.34 µM and 0.926 µM in [2]; 0.321 µM in experiment [4]; 0.227 µM in [5]; 0.229 µM in experiment [6]; 0.7 µM in experiment [8]. In addition, in experiment [9], the TGI turned out to be 2.16 µM. Moreover, in experiment [5], the GI50 is less than 0.001 µM.
As to `COC(=O)C1CC(C(=O)OC)c2nc3cc(C)ccc3nc21` (stereo not given), the TGI in [1], in experiment [2], in experiment [4], in [5], in experiment [6] and in experiment [8] was more than 100 µM in each case. Moreover, the TGI in experiment [9] is more than 100 µM.
With `Cc1ccc(NC(=O)CC2C(=O)Nc3ccccc3S2=O)cc1C` (stereo not given), the TGI in experiment [1], in experiment [2], in [4], in experiment [5], in experiment [6] and in [8] was more than 100 µM each time. Moreover, the TGI in experiment [9] is more than 100 µM.
Take `CC(CN(CP(=O)([O-])[O-])CP(=O)([O-])[O-])N(CP(=O)([O-])[O-])CP(=O)([O-])[O-].N.N.[Pt+2]` (stereo not given): the GI50 in experiment [1], in experiment [2], in [4], in experiment [5], in [6] and in experiment [8] was more than 100 µM in each case. The GI50 in experiment [9] is more than 100 µM. The TGI in experiment [1], in experiment [2], in [4], in experiment [5], in experiment [6] and in experiment [8] was more than 100 µM throughout. In [9], the TGI is more than 100 µM.
Turning to `Clc1ccc(Cl)c2[s+]snc12`, the TGI was more than 100 µM in experiment [1]; more than 100 µM in [2]; more than 100 µM in experiment [4]; more than 100 µM in [5]; more than 67.9 µM in experiment [6]; more than 100 µM in [8]. In addition, the TGI in experiment [9] is more than 100 µM.
Regarding `C=C1[C@@H](C)[C@H]2[C@H](Cc3ccccc3)NC(=O)[C@]23OC(=O)/C=C/[C@H](O)CCC[C@@H](C)C/C=C/[C@H]3[C@@H]1O`, the TGI in experiment [1] is 57.4 µM; in experiment [2] it was 64.1 µM; in [3], more than 100 µM; in experiment [4], 47 µM; in [5], 16.5 µM; in [6], more than 100 µM. Besides, the TGI was more than 100 µM in experiment [7], 73.6 µM in experiment [8] and 4.12 µM in [9].
For `O=S(=O)([O-])c1cccc2cccc(N=Cc3ccccc3[O-])c12.O=S(=O)([O-])c1cccc2cccc(N=Cc3ccccc3[O-])c12.[O]=[U]=[O]`, the GI50 in experiment [1] was 18.4 µM; in experiment [2], 45.6 µM; in [4] it was 21.3 µM; in experiment [5], more than 100 µM; in [6], 35.5 µM; in [8] it was more than 100 µM. Also, in [9], the GI50 was 50.7 µM. The TGI in [1] was more than 100 µM; in [2], more than 100 µM; in experiment [4], 67.3 µM; in [5], more than 100 µM; in experiment [6], more than 100 µM; in experiment [8], more than 100 µM. This compound gave a TGI in experiment [9] of more than 100 µM.
As for `CC1OC(n2ncc(=O)[nH]c2=O)C=CC1=O` (stereo not given), the GI50 was > 100 µM and 35.1 µM in [2]; > 100 µM and 36.6 µM in [8]. Besides, the TGI in experiment [2], in experiment [4], in experiment [6], in experiment [8] and in experiment [9] was more than 100 µM throughout.
For the compound `Clc1ccc(-n2nnc(C3=NCCN3)c2-c2ccccc2)cc1`, the TGI in experiment [1], in [2], in [4], in [5], in experiment [6] and in experiment [8] was more than 100 µM throughout. In experiment [9], this compound registered a TGI of more than 100 µM.
Consider `COc1ccc2[nH]c(-c3ccccn3)cc(=O)c2c1`, for which the TGI was more than 100 µM in experiment [1]; more than 100 µM in experiment [2]; more than 100 µM in experiment [4]; more than 100 µM in [6]; 65.8 µM in experiment [8]; more than 100 µM in experiment [9]. Besides, in experiment [8], the GI50 is 24.2 µM.
As for `O=C(O)CNc1c2ccccc2nc2ccccc12`, the TGI in [1], in experiment [2], in experiment [4], in [6], in experiment [8] and in experiment [9] was more than 100 µM each time.
Turning to `COC(=O)C1=C(C)N(NC(N)=O)C2(N)N(NC(N)=O)C(C)=C(C(=O)OC)C12C(=O)OC` (stereo not given), the TGI in experiment [1], in experiment [2], in [4], in experiment [5], in experiment [6] and in [8] was more than 100 µM throughout. The TGI in experiment [9] is more than 100 µM.
As to `CCCCCCCCCC(=O)CC(=O)c1ccc(O)cc1O`, the TGI in [1] is more than 100 µM; in [2], more than 100 µM; in [4] it was more than 100 µM; in experiment [6], more than 100 µM; in [8], more than 100 µM; in experiment [9], 98 µM.
